# Read-outs that look alike come from different tables or passages of the source.
# Legend:
# [1] = system: histamine-induced contraction of isolated trachea; test: Anticonstrictive action against histamine-induced contraction of isolated tracheal ring chains; design: species or system albino guinea pigs; conditions: Cavia porcellus; guinea pig tracheal chain, histamine dihydrochloride 3×10^−7 g/ml, n=6
# Text: (§1) The inhibitory action of the compounds of formula I on the proinflammatory early-phase mediators histamine, PAF and leukotriene D4 (LTD4) was investigated on isolated segments of the respiratory tract organs of albino guinea pigs, the inhibition of the contractions which can be caused by these mediators being used as measurement parameters.
# (§2) To carry out the experiment, freshly prepared organs of male animals were used in each case. The trachea was divided into its rings, of which 5 tracheal rings in each case were linked with silk thread to give a chain, suspended under a tension of 0.5 g in an organ bath containing Tyrode solution at 37° C. through which was bubbled 95% O2/5% CO2, and contracted by addition of histamine dihydrochloride (bath concentration: 3×10^−7 g/ml) in the absence (control experiment) or in the presence of the test substances.
# (§3) Each experiment comprised the parallel investigation of 6 organ preparations (n=6).
# (§4) The assessment of the action of the preparation was carried out with the aid of the IC50 values, which represent that concentration in μg/ml at which the organ contraction produced in the control experiment was reduced by half.
# [2] = system: PAF-induced contraction of isolated lung strips; test: Anticonstrictive action against PAF-induced contraction of isolated lung strips; design: species or system albino guinea pigs; conditions: Cavia porcellus; guinea pig lung strips, PAF 10^−9 g/ml, n=6; read-out: Anticonstrictive action (IC50) PAT lung
# Text: as §1, §2
# (§5) The lungs were cut longitudinally into 2 to 3 strips, using which the process as described above was carried out. The tension, however, was 1 g and the contraction was induced by PAF or LTD4 at a bath concentration of 10^−9 or 10^−8 g/mi.
# as §3, §4
# [3] = system: LTD4-induced contraction of isolated lung strips; test: Anticonstrictive action against LTD4-induced contraction of isolated lung strips; design: species or system albino guinea pigs; conditions: Cavia porcellus; guinea pig lung strips, LTD4 10^−8 g/ml, n=6
# Text: as §1, §2, §5, §3, §4
# [4] = system: ovalbumin-induced asthma attack; test: Inhibition of the antigen-induced early-phase reaction (ovalbumin-induced bronchospasm, Konzett-Rössler) in the presensitized guinea pig; assay type: in vivo, albino guinea pigs; conditions: Cavia porcellus, iv, protected = asthma reaction reduced by at least 40% relative to control; for responders at 10 mg/kg: 10 mg/kg i.v. 15 minutes before antigen; for responders at 25 mg/kg: 25 mg/kg i.v. 15 minutes before antigen
# Description: Albino guinea pigs of both sexes having a body weight of 180 to 220 g were sensitized on two successive days by subcutaneous administration of 1 mg of ovalbumin (0.1% strength dissolved in physiological saline solution) in each case. 20 days later, the experiment was carried out according to the method of Konzett and […] (Arch. exp. Path. und Pharmak. (1940) 195: 75). For this purpose, the animals were anesthetized with pentobarbital, artificially ventilated, treated with alcuronium chloride to exclude spontaneous respiration and divided into groups of 6 animals in each case. By means of intravenous administration of ovalbumin as an antigen in a dose of 1 mg/kg, a long-lasting asthma attack was induced as a result of an acute bronchospasm induced by mediators in the course of the asthmatic early reaction, the intensity of which was quantified by means of the contraction height in the thoracogram. The test preparations were likewise administered intravenously 15 minutes before antigen provocation. Instead of this, the animals of the control group received pure 0.9% strength saline solution. To assess the action of the preparation, the number of animals of the respective collective in which the asthma reaction was reduced by at least 40% relative to the control animals was determined.
# [5] = system: human eosinophilic granulocytes; test: Inhibition of eosinophil activation by late-phase mediators, lucigenin-dependent chemiluminescence; assay type: cell-based; conditions: 0.5 h, test substance 100 μM, human eosinophils, CL over 30 minutes
# Text: The inhibitory action of the xanthines of formula I on the activation ability of human eosinophilic granulocytes by means of the late-phase mediators IL-5, GM-CSF, C5a and PAF was investigated with the aid of the lucigenin-dependent chemiluminescence (CL) reaction.
# For this purpose, purified eosinophils were obtained from venous human blood according to known processes (Arch. Dermatol. Res. (1987) 279: 470-477 and J. Invest. Dermatol. (1986) 86: 523-528), pretreated with the test substances at the concentration 100 μM or with pure water (positive control (A)) at 37° C. for 10 minutes and then activated with IL-5 (10^2 U/ml), GM-CSF (10^3 U/ml), C5a (10^−7 M) or PAF (10^−6 M) or treated with water for the determination of the basal activity (B). The CL reaction was monitored over the course of 30 minutes measuring at 37° C. The residual activity of the cells pretreated with the test substances was calculated according to the following formula in percent of that of the positive control: [formula]
# CLX describes the activity after stimulation of the cells pretreated with the xanthines,
# CLA describes the activity after stimulation of the cells pretreated with water and
# CLB describes the basal activity of unstimulated cells pretreated with water.
# [6] = system: eosinophilic granulocytes infiltrating the peritoneal space; test: Antigen-induced late-phase reaction: infiltration of eosinophilic granulocytes into the peritoneal space (in vivo); design: species or system guinea pigs; conditions: 80 mg/kg daily oral for 15 weeks, human serum antigen i.p. weekly, peritoneal lavage 48 hours later; control animals 42.2 5.8%; p<0.01
# Description: (§6) In a chronic long-term experiment on guinea pigs provoked with human serum antigen, the inhibitory action of the compounds of the formula I on the pathologically raised chemotactic infiltration of eosinophilic granulocytes into the peritoneal space (in vivo) and their functional state (ex vivo) was investigated. The animals of the preparation group (n=6) were treated with the test substance at a daily oral dose of 80 mg/kg for 15 weeks, while the animals of the control group (n=6) received the vehicle (carboxymethylcellulose). After the third week of treatment, all 12 animals were provoked by weekly intraperitoneal administration of 1 ml of human serum antigen and 48 hours later in each case subjected to a peritoneal lavage with 50 ml of 5% strength glucose solution in which the number of infiltrated eosinophils and, after their isolation on discontinuous Percoll density gradients (purity >95%; V ability >98%), the reactivity to PAF and C5a were determined in a comparison between the two animal collectives by flow cytometry with the aid of actin polymerization and by means of the Boyden chamber technique.
# [7] = system: eosinophilic granulocytes; test: Antigen-induced late-phase reaction: ex vivo chemotactic migration of eosinophils (Boyden chamber technique); assay type: in vivo, guinea pigs; conditions: eosinophils of animals treated with 80 mg/kg daily oral, compared with control animals, p<0.05
# Description: as §6
# [8] = system: eosinophilic granulocytes; test: Antigen-induced late-phase reaction: ex vivo actin polymerization of eosinophils (flow cytometry); assay type: in vivo, guinea pigs; conditions: PAF 10 nM, eosinophils of animals treated with 80 mg/kg daily oral
# Description: as §6
# [9] = read-out: Protected animals after i.v. administration, % proportion
# [10] = read-out: Protected animals after i.v. administration, number (converted)
# [11] = C5a 10^−7 M, read-out: Residual activity in % of the positive control A after stimulation with C5a
# [12] = GM-CSF 10^3 U/ml, read-out: Residual activity in % of the positive control A after stimulation with GM-CSF
# [13] = IL-5 10^2 U/ml, read-out: Residual activity in % of the positive control A after stimulation with IL-5
# [14] = PAF 10^−6 M, read-out: Residual activity in % of the positive control A after stimulation with PAF
IC50 [1],IC50 [2],IC50 [3],melting point,SMILES,"responders at 10 mg/kg [4, 9]","responders at 10 mg/kg [4, 10]","responders at 25 mg/kg [4, 9]","responders at 25 mg/kg [4, 10]","activity at 100 µM [5, 11]","activity at 100 µM [5, 12]","activity at 100 µM [5, 13]","activity at 100 µM [5, 14]",Number of eosinophils which migrated into the peritoneal space [6],Chemotactic migration of eosinophils induced by C5a [7],Chemotactic migration of eosinophils induced by PAF [7],Initial phase (<10s) of actin polymerization induced by PAF [8]
60 µg/mL,3 to 6 µg/mL,10 to 30 µg/mL,,"CCOCn1cnc2c1c(=O)n(CCCCC(C)(C)O)c(=O)n2C [Torbafylline, 7-ethoxymethyl-1-(5-hydroxy-5-methylhexyl)-3-methylxanthine, reference compound]",0%,0%,0%,0%,51%,125%,58%,58%,,,,
3 to 10 µg/mL,3 to 6 µg/mL,6 to 10 µg/mL,166 to 167 °C,"Cn1c(=O)n(CCCCCC(C)(C)O)c(=O)c2[nH]cnc21 [Example 12, 1-(6-Hydroxy-6-methylheptyl)-3-methylxanthine]",50%,50%,67%,66.7%,,,,,,,,
10 to 30 µg/mL,10 µg/mL,10 to 30 µg/mL,169 to 170 °C,"CCC(C)(O)CCCCn1c(=O)c2[nH]cnc2n(C)c1=O (stereo not shown) [Example 9, 1-(5-Hydroxy-5-methylheptyl)-3-methylxanthine]",67%,66.7%,83%,83.3%,,,,,,,,
10 to 30 µg/mL,1 µg/mL,,163 to 165 °C,"CCn1c(=O)n(CCCCCC(C)(C)O)c(=O)c2[nH]cnc21 [Example 13, 3-Ethyl-1-(6-hydroxy-6-methylheptyl)xanthine]",,,,,,,,,,,,
10 to 30 µg/mL,6 µg/mL,10 µg/mL,181 to 182 °C,"Cn1c(=O)n(CCCCC(C)(O)CO)c(=O)c2[nH]cnc21 (stereo not shown) [Example 8, 1-(5,6-Dihydroxy-5-methylhexyl)-3-methylxanthine]",50%,50%,50%,50%,,,,,,,,
,,,165 to 166 °C,"CCn1c(=O)n(CCCCC(C)(O)CC)c(=O)c2[nH]cnc21 (stereo not shown) [Example 11, 3-Ethyl-1-(5-hydroxy-5-methylheptyl)xanthine]",,,,,,,,,,,,
,,,180 to 182 °C,"CCn1c(=O)n(CCCCC(C)(C)O)c(=O)c2[nH]cnc21 [Example 10, 3-Ethyl-1-(5-hydroxy-5-methylhexyl)xanthine]",,,,,,,,,,,,

# More lines, now with the values behind:
SMILES,IC50 [1],IC50 [2],IC50 [3],melting point,"responders at 10 mg/kg [4, 9]","responders at 10 mg/kg [4, 10]","responders at 25 mg/kg [4, 9]","responders at 25 mg/kg [4, 10]","activity at 100 µM [5, 11]","activity at 100 µM [5, 12]","activity at 100 µM [5, 13]","activity at 100 µM [5, 14]",Number of eosinophils which migrated into the peritoneal space [6],Chemotactic migration of eosinophils induced by C5a [7],Chemotactic migration of eosinophils induced by PAF [7],Initial phase (<10s) of actin polymerization induced by PAF [8]
"Cn1c(=O)n(CC(C)(C)O)c(=O)c2[nH]cnc21 [Example 1, 1-(2-Hydroxy-2-methylpropyl)-3-methylxanthine]",,,,215 to 217 °C,,,,,,,,,,,,
"CC(=O)CCCCn1c(=O)c2c(ncn2C)n(C)c1=O [Pentoxifylline, 3,7-dimethyl-1-(5-oxohexyl)xanthine, reference compound]",30 to 60 µg/mL,3 µg/mL,30 to 60 µg/mL,,17%,16.7%,33%,33.3%,56%,70%,57%,45%,,,,
"CCn1c(=O)n(CCCC(C)(C)O)c(=O)c2[nH]cnc21 [Example 6, 3-Ethyl-1-(4-hydroxy-4-methylpentyl)xanthine]",30 µg/mL,3 µg/mL,1 to 3 µg/mL,214 to 216 °C,,,,,,,,,,,,
"CCn1c(=O)n(CCC(C)(C)O)c(=O)c2[nH]cnc21 [Example 4, 3-Ethyl-1-(3-hydroxy-3-methylbutyl)xanthine]",10 µg/mL,1 to 3 µg/mL,,241 to 243 °C,17%,16.7%,50%,50%,,,,,,,,
"CCn1c(=O)n(CC(C)(C)O)c(=O)c2[nH]cnc21 [Example 2, 3-Ethyl-1-(2-hydroxy-2-methylpropyl)xanthine]",,,,,33%,33.3%,67%,66.7%,,,,,,,,
"Cn1c(=O)n(CCCC(C)(C)O)c(=O)c2[nH]cnc21 [Example 5, 1-(4-hydroxy-4-methylpentyl)-3-methylxanthine]",30 µg/mL,3 µg/mL,10 µg/mL,188 to 189 °C,,,,,,,,,,,,
"Cn1c(=O)n(CCC(C)(C)O)c(=O)c2[nH]cnc21 [Example 3, 1-(3-Hydroxy-3-methylbutyl)-3-methylxanthine]",,,,203 to 205 °C,,,,,,,,,,,,
"Cn1c(=O)n(CCCCC(C)(C)O)c(=O)c2[nH]cnc21 [Example 7, 1-(5-Hydroxy-5-methylhexyl)-3-methylxanthine]",10 to 30 µg/mL,10 to 30 µg/mL,10 to 30 µg/mL,192 to 193 °C,33%,33.3%,80%,80%,19%,63%,42%,17%,34.9%,significant reduction,significant reduction,significantly decreased
